# Data: ChEMBL document CHEMBL1743341, “Cytochrome p450 enzymes mechanism based inhibitors: common sub-structures and reactivity” (Curr Drug Metab, 2005)
# What was measured:
# [1] = biological target: Cytochrome P450 3A11 (Mus musculus, UniProt Q64459); test: Mechanism based inhibition of mouse cytochrome P450 CYP3A11; format: ADME
# [2] = biological target: T1, CYP2B11 (Canis lupus familiaris, UniProt P24460); test: (§1) Mechanism based inhibition of dog cytochrome P450 CYP2B11 measured by Diazepam N1-demethylation using liver microsomes; format: ADME, Microsome; details: dog, liver microsomes, probe diazepam (N1-demethylation)
# [3] = biological target: T2, Cytochrome P450 2B11 (Canis lupus familiaris, UniProt P24460); test: as §1; format: ADME, Microsome
# [4] = biological target: T1, CYP2B11; test: (§2) Mechanism based inhibition of dog cytochrome P450 CYP2B11 measured by Diazepam N1-demethylation using recombinant enzyme; format: ADME; details: dog, recombinant CYP2B11, probe diazepam (N1-demethylation)
# [5] = biological target: T2, Cytochrome P450 2B11; test: as §2; format: ADME
# [6] = biological target: Cytochrome P450 3A12 (Canis lupus familiaris, UniProt P24463); test: Mechanism based inhibition of dog cytochrome P450 CYP3A12; format: ADME
# [7] = biological target: Cytochrome P450 4A4 (Oryctolagus cuniculus, UniProt P10611); test: Mechanism based inhibition of rabbit cytochrome P450 CYP4A4; format: ADME
# [8] = biological target: T3, Cytochrome P450 2E1 (Rattus norvegicus, UniProt P05182); test: Mechanism based inhibition of rat cytochrome P450 CYP2E1; format: ADME
# [9] = biological target: CYP2E1 (Rattus norvegicus, UniProt P05182); test: (§3) Mechanism based inhibition of rat cytochrome P450 CYP2E1 measured by P-nitrophenol (PNP) hydroxylase activity; format: ADME; details: rat, probe p-nitrophenol (PNP hydroxylase activity)
# [10] = biological target: T3, Cytochrome P450 2E1; test: as §3; format: ADME
# [11] = biological target: CYP1A1 (Homo sapiens, UniProt P04798); test: (§4) Mechanism based inhibition of human cytochrome P450 1A1 measured by 7-ethoxyresorufin O-deethylation (EROD); format: ADME; details: human, probe 7-ethoxyresorufin (O-deethylation, EROD)
# [12] = biological target: T4, Cytochrome P450 1A1 (Homo sapiens, UniProt P04798); test: as §4; format: ADME
# T4 sequence (P04798 whole entry): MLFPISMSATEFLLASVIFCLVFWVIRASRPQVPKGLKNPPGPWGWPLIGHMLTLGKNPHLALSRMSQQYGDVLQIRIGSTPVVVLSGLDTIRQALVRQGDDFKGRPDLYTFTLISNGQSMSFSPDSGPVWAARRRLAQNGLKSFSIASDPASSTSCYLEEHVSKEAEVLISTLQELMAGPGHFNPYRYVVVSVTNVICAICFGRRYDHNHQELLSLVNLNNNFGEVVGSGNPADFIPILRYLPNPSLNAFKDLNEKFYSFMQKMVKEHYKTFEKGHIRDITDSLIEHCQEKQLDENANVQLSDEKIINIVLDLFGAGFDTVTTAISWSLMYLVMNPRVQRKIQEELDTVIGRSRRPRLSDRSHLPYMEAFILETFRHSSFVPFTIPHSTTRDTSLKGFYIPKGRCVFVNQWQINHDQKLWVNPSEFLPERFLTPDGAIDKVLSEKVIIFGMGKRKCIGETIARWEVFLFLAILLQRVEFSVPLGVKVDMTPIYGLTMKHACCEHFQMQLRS
# [13] = biological target: T5, Cytochrome P450 1A2 (Homo sapiens, UniProt P05177); test: Mechanism based inhibition of human cytochrome P450 1A2 measured by 7-ethoxyresorufin O-deethylation (EROD); format: ADME
# T5 sequence (P05177 whole entry): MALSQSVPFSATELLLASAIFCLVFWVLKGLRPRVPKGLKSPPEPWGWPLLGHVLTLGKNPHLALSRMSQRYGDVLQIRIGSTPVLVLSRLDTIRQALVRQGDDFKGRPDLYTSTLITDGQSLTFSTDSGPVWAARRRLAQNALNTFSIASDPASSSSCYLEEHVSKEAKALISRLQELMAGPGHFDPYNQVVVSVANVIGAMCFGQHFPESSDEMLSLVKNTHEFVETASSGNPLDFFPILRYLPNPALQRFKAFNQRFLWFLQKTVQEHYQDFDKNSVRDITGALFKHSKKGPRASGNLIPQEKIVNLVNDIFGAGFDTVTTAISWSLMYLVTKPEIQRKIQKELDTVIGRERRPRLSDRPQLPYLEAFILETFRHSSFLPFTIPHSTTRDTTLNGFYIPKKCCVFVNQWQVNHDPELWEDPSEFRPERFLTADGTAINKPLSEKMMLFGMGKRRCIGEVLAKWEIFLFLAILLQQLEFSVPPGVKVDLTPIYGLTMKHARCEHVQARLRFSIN
# [14] = biological target: T6, CYP1A2 (Homo sapiens, UniProt P05177); test: (§5) Mechanism based inhibition of human cytochrome P450 1A2 measured by 7-methoxyresorufin O-demethylation (MROD); format: ADME; details: human, probe 7-methoxyresorufin (O-demethylation, MROD)
# T6 sequence (P05177 whole entry): T5 sequence (P05177 whole entry)
# [15] = biological target: T5, Cytochrome P450 1A2; test: as §5; format: ADME
# [16] = biological target: T7, Cytochrome P450 1B1 (Homo sapiens, UniProt Q16678); test: Mechanism based inhibition of human cytochrome P450 1B1 measured by 7-ethoxyresorufin O-deethylation (EROD); format: ADME
# T7 sequence (Q16678 whole entry): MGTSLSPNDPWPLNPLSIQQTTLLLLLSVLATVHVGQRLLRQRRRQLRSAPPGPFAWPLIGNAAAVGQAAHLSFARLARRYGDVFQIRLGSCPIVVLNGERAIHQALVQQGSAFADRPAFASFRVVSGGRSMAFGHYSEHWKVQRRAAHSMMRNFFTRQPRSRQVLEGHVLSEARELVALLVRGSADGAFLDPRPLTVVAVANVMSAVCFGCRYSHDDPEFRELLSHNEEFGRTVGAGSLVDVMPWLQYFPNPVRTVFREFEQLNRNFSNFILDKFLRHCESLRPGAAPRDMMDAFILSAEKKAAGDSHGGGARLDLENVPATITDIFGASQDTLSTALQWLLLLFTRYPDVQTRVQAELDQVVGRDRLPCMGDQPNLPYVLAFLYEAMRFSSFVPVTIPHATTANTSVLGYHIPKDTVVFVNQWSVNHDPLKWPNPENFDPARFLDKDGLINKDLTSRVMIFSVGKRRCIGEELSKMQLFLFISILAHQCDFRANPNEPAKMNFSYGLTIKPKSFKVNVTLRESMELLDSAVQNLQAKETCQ
# [17] = biological target: T8, Cytochrome P450 1A1 (Rattus norvegicus, UniProt P00185); test: Mechanism based inhibition of rat cytochrome P450 CYP1A1; format: ADME
# T8 sequence (P00185 whole entry): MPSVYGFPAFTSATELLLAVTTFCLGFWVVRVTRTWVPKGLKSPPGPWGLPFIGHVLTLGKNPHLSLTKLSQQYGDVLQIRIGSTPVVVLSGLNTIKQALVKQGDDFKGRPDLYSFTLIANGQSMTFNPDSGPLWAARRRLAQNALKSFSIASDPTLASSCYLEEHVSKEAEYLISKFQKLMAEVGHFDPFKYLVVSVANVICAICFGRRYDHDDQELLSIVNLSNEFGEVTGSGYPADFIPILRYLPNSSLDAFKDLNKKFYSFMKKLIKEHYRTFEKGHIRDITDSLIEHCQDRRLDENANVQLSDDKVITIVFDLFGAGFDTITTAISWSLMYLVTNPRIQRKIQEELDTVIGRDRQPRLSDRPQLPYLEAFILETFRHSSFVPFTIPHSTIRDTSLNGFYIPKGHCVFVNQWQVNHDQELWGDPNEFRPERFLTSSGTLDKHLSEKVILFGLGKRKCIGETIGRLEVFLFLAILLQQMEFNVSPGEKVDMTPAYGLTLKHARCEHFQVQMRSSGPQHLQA
# [18] = biological target: T9, CYP1A1 (Rattus norvegicus, UniProt P00185); test: (§6) Mechanism based inhibition of rat cytochrome P450 CYP1A1 measured by 7-ethoxyresorufin O-deethylation (EROD); format: ADME; details: rat, probe 7-ethoxyresorufin (O-deethylation, EROD)
# T9 sequence (P00185 whole entry): T8 sequence (P00185 whole entry)
# [19] = biological target: T8, Cytochrome P450 1A1; test: as §6; format: ADME
# [20] = biological target: T10, CYP1A2 (Rattus norvegicus, UniProt P04799); test: (§7) Mechanism based inhibition of rat cytochrome P450 CYP1A2; format: ADME; details: rat
# T10 sequence (P04799 whole entry): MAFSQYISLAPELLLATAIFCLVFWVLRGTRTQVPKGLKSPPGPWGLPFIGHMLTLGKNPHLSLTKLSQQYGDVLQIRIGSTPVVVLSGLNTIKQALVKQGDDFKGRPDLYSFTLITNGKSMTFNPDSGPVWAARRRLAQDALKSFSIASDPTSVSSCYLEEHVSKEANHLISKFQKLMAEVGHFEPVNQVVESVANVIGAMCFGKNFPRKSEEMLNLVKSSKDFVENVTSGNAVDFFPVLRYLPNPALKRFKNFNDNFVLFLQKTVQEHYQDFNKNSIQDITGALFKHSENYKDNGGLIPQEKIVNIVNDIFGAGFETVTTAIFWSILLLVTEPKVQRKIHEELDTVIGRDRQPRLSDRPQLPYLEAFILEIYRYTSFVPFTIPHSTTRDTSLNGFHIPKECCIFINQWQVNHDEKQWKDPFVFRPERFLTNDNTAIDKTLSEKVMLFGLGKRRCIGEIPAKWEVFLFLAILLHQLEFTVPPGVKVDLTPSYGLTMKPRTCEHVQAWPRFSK
# [21] = biological target: T11, Cytochrome P450 1A2 (Rattus norvegicus, UniProt P04799); test: as §7; format: ADME
# T11 sequence (P04799 whole entry): T10 sequence (P04799 whole entry)
# T1 sequence (P24460 whole entry): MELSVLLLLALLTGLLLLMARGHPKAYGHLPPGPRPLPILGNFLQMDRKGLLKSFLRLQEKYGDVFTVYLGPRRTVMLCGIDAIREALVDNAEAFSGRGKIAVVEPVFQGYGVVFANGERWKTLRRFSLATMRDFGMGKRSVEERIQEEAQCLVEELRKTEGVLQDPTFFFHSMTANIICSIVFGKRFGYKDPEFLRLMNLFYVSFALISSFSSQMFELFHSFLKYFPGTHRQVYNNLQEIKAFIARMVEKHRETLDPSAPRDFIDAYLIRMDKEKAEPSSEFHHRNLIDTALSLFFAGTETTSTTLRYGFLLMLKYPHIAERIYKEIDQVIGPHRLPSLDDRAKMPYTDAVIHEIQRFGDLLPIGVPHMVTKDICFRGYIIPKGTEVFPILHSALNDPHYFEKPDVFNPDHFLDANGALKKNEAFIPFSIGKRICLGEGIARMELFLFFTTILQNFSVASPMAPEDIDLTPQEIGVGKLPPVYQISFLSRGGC
# T2 sequence (P24460 whole entry): as above
# T3 sequence (P05182 whole entry): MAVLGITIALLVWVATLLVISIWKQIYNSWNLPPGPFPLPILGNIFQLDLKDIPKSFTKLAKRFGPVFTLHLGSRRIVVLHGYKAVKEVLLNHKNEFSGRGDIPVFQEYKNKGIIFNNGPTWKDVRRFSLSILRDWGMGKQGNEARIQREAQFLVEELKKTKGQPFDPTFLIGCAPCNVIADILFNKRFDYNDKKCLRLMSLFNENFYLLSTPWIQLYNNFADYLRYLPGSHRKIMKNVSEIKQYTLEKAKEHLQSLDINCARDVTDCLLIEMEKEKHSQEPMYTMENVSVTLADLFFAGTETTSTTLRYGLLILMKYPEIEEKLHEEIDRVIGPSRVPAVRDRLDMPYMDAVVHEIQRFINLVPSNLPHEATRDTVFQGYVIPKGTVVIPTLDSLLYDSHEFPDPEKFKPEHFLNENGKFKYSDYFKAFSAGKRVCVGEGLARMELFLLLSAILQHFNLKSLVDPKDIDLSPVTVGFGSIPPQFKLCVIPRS
# Cytochrome P450 4A4, sequence (P10611 whole entry): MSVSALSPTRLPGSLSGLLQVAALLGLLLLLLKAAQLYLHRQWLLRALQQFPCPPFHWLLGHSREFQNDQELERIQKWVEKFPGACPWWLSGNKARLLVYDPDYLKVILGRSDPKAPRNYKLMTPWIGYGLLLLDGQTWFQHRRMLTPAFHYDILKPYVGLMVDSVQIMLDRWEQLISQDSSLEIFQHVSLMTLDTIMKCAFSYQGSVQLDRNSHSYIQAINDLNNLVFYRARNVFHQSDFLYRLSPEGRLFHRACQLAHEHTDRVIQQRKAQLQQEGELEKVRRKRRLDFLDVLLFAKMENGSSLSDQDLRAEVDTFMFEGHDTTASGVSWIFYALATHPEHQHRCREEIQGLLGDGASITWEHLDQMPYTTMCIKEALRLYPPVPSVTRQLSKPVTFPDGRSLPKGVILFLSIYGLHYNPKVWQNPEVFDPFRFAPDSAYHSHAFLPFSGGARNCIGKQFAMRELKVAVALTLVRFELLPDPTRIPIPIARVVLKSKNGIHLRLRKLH
# Cytochrome P450 3A11, sequence (Q64459 whole entry): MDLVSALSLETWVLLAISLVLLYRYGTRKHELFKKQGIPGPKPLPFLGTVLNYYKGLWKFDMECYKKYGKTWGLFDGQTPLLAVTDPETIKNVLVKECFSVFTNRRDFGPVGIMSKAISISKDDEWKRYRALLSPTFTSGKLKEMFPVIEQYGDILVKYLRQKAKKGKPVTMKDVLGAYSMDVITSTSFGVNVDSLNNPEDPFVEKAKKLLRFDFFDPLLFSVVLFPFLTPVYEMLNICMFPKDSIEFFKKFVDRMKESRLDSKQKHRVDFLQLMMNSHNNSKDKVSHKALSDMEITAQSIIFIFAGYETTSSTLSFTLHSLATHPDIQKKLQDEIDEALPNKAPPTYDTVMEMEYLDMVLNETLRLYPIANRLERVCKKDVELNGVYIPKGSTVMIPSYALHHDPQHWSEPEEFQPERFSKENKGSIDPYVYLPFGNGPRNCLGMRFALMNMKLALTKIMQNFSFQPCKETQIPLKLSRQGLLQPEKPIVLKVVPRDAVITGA
# Cytochrome P450 3A12, sequence (P24463 whole entry): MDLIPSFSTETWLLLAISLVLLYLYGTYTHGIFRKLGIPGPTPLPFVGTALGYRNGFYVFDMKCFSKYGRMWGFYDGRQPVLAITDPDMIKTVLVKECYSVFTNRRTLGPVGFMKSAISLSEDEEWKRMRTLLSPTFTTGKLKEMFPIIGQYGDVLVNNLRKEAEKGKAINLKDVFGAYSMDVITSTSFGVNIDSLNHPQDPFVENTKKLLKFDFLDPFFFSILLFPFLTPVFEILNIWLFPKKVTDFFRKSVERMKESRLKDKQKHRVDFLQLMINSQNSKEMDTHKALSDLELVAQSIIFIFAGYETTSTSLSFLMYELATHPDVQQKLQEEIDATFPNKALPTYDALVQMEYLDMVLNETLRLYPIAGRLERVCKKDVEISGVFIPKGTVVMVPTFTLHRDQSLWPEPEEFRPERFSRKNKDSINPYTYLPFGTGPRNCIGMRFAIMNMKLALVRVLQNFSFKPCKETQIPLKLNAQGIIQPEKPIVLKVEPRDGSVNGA
# CYP2E1, sequence (P05182 whole entry): as the sequence (P05182 whole entry) above
smiles,measurement,setting,value
C=C(C)[C@@H]1CCC(C)=C[C@H]1c1c(O)cc(CCCCC)cc1O [CANNABIDIOL],mechanism based inhibition,[1],Cytochrome P450 mechanistic inhibitor: PMID 9778318
CC(Nn1nnc2ccccc21)c1ccccc1 (centres undefined),kinact,[2],0.00933 s⁻¹
same,Ki,[3],460 nM
same,kinact,[4],0.025 s⁻¹
same,Ki,[5],350 nM
same,mechanism based inhibition,[6],Cytochrome P450 mechanistic inhibitor: PMID 15677349
C#CCCCC(O)CCCCCCCCCCC(=O)O (centres undefined),mechanism based inhibition,[7],Cytochrome P450 mechanistic inhibitor: PMID 9168258
C=CCS(=O)(=O)CC=C [DIALLYLSULFONE],mechanism based inhibition,[8],Cytochrome P450 mechanistic inhibitor: PMID 9084912
same,kinact,[9],0.00533 s⁻¹
same,Ki,[10],188000 nM
CC#Cc1ccc(-c2ccccc2)cc1,kinact,[11],0.00667 s⁻¹
same,Ki,[12],220 nM
same,mechanism based inhibition,[12],Cytochrome P450 mechanistic inhibitor: PMID 9760279
same,mechanism based inhibition,[13],Cytochrome P450 mechanistic inhibitor: PMID 9760279
same,kinact,[14],0.00167 s⁻¹
same,Ki,[15],13 nM
same,mechanism based inhibition,[16],Cytochrome P450 mechanistic inhibitor: PMID 9760279
same,mechanism based inhibition,[17],Cytochrome P450 mechanistic inhibitor: PMID 9074808
CC#Cc1ccc2c(ccc3ccccc32)c1,mechanism based inhibition,[12],Cytochrome P450 mechanistic inhibitor: PMID 9760279
same,mechanism based inhibition,[13],Cytochrome P450 mechanistic inhibitor: PMID 9760279
same,kinact,[18],0.005 s⁻¹
same,Ki,[19],10 nM
same,kinact,[20],0.005 s⁻¹
same,Ki,[21],30 nM
